# Tested on: panel of 235 cell lines representing 14 tumor lineages
# Assay: ATPlite growth inhibition screening of a human cancer cell line panel (Horizon Discovery)
# Format: cell-based
# Procedure: A 72 hour ATPlite assay (except for DLD-1 and HCT116 cell lines, for which a 120 hour assay was performed) with growth inhibition analysis was performed in two parts at Horizon Discovery Ltd, UK. Samples were tested as four replicates in 384-well assay plates. Serial dilution series of antibody, starting from 0.072 μM final concentration was used for all tested cell lines. For TRAIL (Invitrogen; Cat # PHC1634) serial dilution series starting from 0.01 μM final concentration for the cell lines tested in the first part and 0.17 μM final concentration for the cell lines tested in the second part of the screening was used.
# [1] = 59M, ovary cancer, screening #1
# [2] = 769-P, kidney cancer, screening #2
# [3] = 786-0, kidney cancer, screening #2
# [4] = 5637, bladder cancer, screening #2
# [5] = A172, neural tissue cancer, screening #2
# [6] = ACHN, kidney cancer, screening #2
# [7] = CAL-54, kidney cancer, screening #1
# [8] = COLO-783, melanoma, screening #1
# [9] = COR-L23-CPR, NSCLC, screening #1
# [10] = COV434, ovary cancer, screening #1
# [11] = COV644, ovary cancer, screening #1
# [12] = G-402, kidney cancer, screening #2
# [13] = HCC1937, breast cancer (TNBC), screening #2
# [14] = HT-1197, bladder cancer, screening #2
# [15] = HT-1376, bladder cancer, screening #2
# [16] = Hs 294T, melanoma, screening #1
# [17] = HuP-T3, pancreatic cancer, screening #1
# [18] = J82, bladder cancer, screening #1
# [19] = JHOM-1, ovary cancer, screening #1
substance,measurement,setting,value
"TRAIL: natural DR5 ligand, recombinant human TRAIL/APO-2L",IC50,[1],0.049 nM
same,Max Inhibition,[1],98.5%
same,IC50,[2],1.94 nM
same,Max Inhibition,[2],39.4%
same,IC50,[3],288 nM
same,Max Inhibition,[3],2.6%
same,IC50,[4],0.06 nM
same,Max Inhibition,[4],99.1%
same,IC50,[5],0.029 nM
same,Max Inhibition,[5],98.2%
same,Max Inhibition,"A375, melanoma, screening #1",47.1%
same,IC50,"A498, kidney cancer, screening #2",0.079 nM
same,IC50,"A704, kidney cancer, screening #1",3.44 nM
same,IC50,[6],0.356 nM
same,Max Inhibition,[6],32.4%
same,Max Inhibition,"BEN, NSCLC, screening #1",8.1%
same,IC50,"BT-20, breast cancer (TNBC), screening #2",0.089 nM
same,IC50,"BT-549, breast cancer (TNBC), screening #2",0.285 nM
same,Max Inhibition,"BxPC-3, pancreatic cancer, screening #1",46.5%
same,Max Inhibition,"CAKI-2, kidney cancer, screening #1",5.7%
same,Max Inhibition,"CAL-12T, NSCLC, screening #1",11.9%
same,IC50,[7],0.268 nM
same,Max Inhibition,[7],71.6%
same,Max Inhibition,"CAPAN-2, pancreatic cancer, screening #1",4.8%
same,Max Inhibition,"CFPAC-1, pancreatic cancer, screening #1",13.2%
same,IC50,"CL-11, colorectal cancer, screening #1",1.32 nM
same,IC50,"CL-34, colorectal cancer, screening #1",0.024 nM
same,IC50,"CL-40, colorectal cancer, screening #1",1.98 nM
same,Max Inhibition,"COLO858, melanoma, screening #1",12.6%
same,IC50,"COLO-201, colorectal cancer, screening #1",0.168 nM
same,IC50,"COLO-205, colorectal cancer, screening #1",2.27 nM
same,IC50,"COLO-206F, colorectal cancer, screening #1",0.146 nM
same,Max Inhibition,"COLO-679, melanoma, screening #1",24.9%
same,Max Inhibition,"COLO-699, NSCLC, screening #1",2.8%
same,IC50,[8],0.224 nM
same,Max Inhibition,[8],80.9%
same,Max Inhibition,"COLO-800, melanoma, screening #1",33.5%
same,Max Inhibition,"COLO-818, melanoma, screening #1",7.8%
same,Max Inhibition,"COLO-849, melanoma, screening #1",17.6%
same,IC50,[9],5.48 nM
same,Max Inhibition,[9],58.4%
same,Max Inhibition,"COR-L105, NSCLC, screening #1",35.7%
same,IC50,[10],0.395 nM
same,Max Inhibition,[10],73.1%
same,Max Inhibition,"COV504, ovary cancer, screening #1",11.7%
same,IC50,[11],0.271 nM
same,Max Inhibition,[11],74.9%
same,Max Inhibition,"Calu-1, NSCLC, screening #1",22.0%
same,IC50,"DBTRG-05MG, neural tissue cancer, screening #2",0.087 nM
same,IC50,"DLD-1, colorectal cancer, screening #1",3.95 nM
same,IC50,"DLD-1_BRCA2 (−/−), colorectal cancer, screening #1",0.516 nM
same,IC50,"DU-4475, breast cancer (TNBC), screening #2",0.079 nM
same,IC50,"DV-90, NSCLC, screening #1",1.19 nM
same,Max Inhibition,"DV-90, NSCLC, screening #1",96.1%
same,Max Inhibition,"EPLC-272H, NSCLC, screening #1",51.7%
same,IC50,"FTC-238, head and neck cancer, screening #1",3.92 nM
same,IC50,"G-401, kidney cancer, screening #2",0.068 nM
same,IC50,[12],0.173 nM
same,Max Inhibition,[12],15.0%
same,IC50,"GP2D, colorectal cancer, screening #1",0.003 nM
same,IC50,"GSU, gastric cancer, screening #1",0.454 nM
same,IC50,"H4, neural tissue cancer, screening #2",0.007 nM
same,IC50,"HCC38, breast cancer (TNBC), screening #2",0.08 nM
same,IC50,"HCC70, breast cancer (TNBC), screening #2",347 nM
same,IC50,"HCC1187, breast cancer (TNBC), screening #2",0.066 nM
same,IC50,"HCC1806, breast cancer (TNBC), screening #2",0.05 nM
same,IC50,[13],0.647 nM
same,Max Inhibition,[13],28.5%
same,IC50,"HCT-15, colorectal cancer, screening #1",0.129 nM
same,IC50,"HCT-116_ARID1A (Q456*/Q456*), colorectal cancer, screening #1",10.5 nM
same,IC50,"HCT-116_KRAS (+/−), colorectal cancer, screening #1",0.253 nM
same,IC50,"HCT-116_PIK3A (+/−)KO mt H1047R, colorectal cancer, screening #1",1.25 nM
same,IC50,"HEC-108, endometrial cancer, screening #1",1.48 nM
same,IC50,"HEC-265, endometrial cancer, screening #1",0.021 nM
same,Max Inhibition,"HLC-1, NSCLC, screening #1",32.6%
same,IC50,"HLE, liver cancer, screening #1",8.36 nM
same,IC50,"HMC-1-8, breast cancer (TNBC), screening #2",0.232 nM
same,Max Inhibition,"HMCB, melanoma, screening #1",1.0%
same,Max Inhibition,"HOP-62, NSCLC, screening #1",55.6%
same,Max Inhibition,"HPAF-II, pancreatic cancer, screening #1",13.3%
same,IC50,"HRT-186, colorectal cancer, screening #1",9.24 nM
same,IC50,"HT55, colorectal cancer, screening #1",0.11 nM
same,IC50,"HT-115, colorectal cancer, screening #1",0.107 nM
same,IC50,[14],0.167 nM
same,Max Inhibition,[14],31.8%
same,IC50,[15],160 nM
same,Max Inhibition,[15],10.6%
same,IC50,[16],0.019 nM
same,Max Inhibition,[16],91.1%
same,Max Inhibition,"Hs 936.T, melanoma, screening #1",20.7%
same,IC50,[17],0.223 nM
same,Max Inhibition,[17],88.4%
same,Max Inhibition,"IGR-1, melanoma, screening #1",23.3%
same,Max Inhibition,"IGR-37, melanoma, screening #1",18.0%
same,Max Inhibition,"IGR-39, melanoma, screening #1",20.1%
same,Max Inhibition,"IPC-298, melanoma, screening #1",5.7%
same,IC50,[18],33.6 nM
same,Max Inhibition,[18],11.5%
same,Max Inhibition,"JHOC-5, ovary cancer, screening #1",18.4%
same,IC50,[19],0.596 nM
same,Max Inhibition,[19],58.1%
same,Max Inhibition,"JHOM-2B, ovary cancer, screening #1",21.7%
same,Max Inhibition,"JHOS-4, ovary cancer, screening #1",12.5%
same,IC50,"JHUEM-2, endometrial cancer, screening #1",0.165 nM
same,Max Inhibition,"KLM-1, pancreatic cancer, screening #1",12.7%
same,IC50,"KNS-81, neural tissue cancer, screening #2",0.013 nM
same,Max Inhibition,"KP-2, pancreatic cancer, screening #1",3.9%
same,Max Inhibition,"KP-3, pancreatic cancer, screening #1",23.5%
same,Max Inhibition,"KP-4, pancreatic cancer, screening #1",23.6%
